Data from US9254248B2, “Inhibitor of odor caused by sotolone” (Kao Corporaton, priority 2013, dated 2016).

Experiments:
[1] = target: T1, olfactory receptor OR8D1 (Homo sapiens, UniProt Q8WZ84); assay: Antagonistic activity against the response of OR8D1 to sotolone (luciferase assay, rate of inhibition); assay type: cell-based; settings: sotolone 100 μM and test substance 100 μM, OR8D1-expressing HEK293 cells
T1 construct: expressed in transfected cells; host or cells: HEK293
T1 sequence (Q8WZ84 1-308): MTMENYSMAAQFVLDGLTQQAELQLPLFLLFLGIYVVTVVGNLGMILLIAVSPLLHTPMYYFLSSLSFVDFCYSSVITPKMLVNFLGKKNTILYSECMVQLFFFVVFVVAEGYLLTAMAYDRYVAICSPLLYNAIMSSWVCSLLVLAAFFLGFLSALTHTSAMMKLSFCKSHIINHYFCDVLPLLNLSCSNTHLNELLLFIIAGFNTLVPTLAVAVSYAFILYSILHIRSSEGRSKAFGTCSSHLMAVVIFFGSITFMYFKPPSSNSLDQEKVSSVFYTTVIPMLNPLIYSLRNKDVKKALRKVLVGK
Experimental: 228 types of test substances were examined for their antagonistic activity against the response of the olfactory receptor OR8D1 to sotolone.
Sotolone (100 μM) and each test substance (100 μM) were added to HEK293 cells allowed to express the olfactory receptor OR8D1 by the same procedures as in Example 2. The response of the olfactory receptor was measured to evaluate change in receptor response caused by the addition of the test substance.
The rate of inhibition of the receptor response by the test substance was calculated as follows: firefly luciferase-derived luminescence intensity (Y) in the olfactory receptor OR8D1-expressing cells without sotolone stimulation was subtracted from firefly luciferase-derived luminescence intensity (X) induced by stimulation with sotolone alone to determine receptor activity (X−Y) based on the stimulation with sotolone alone. Likewise, the luminescence intensity (Y) in the cells without sotolone stimulation was subtracted from luminescence intensity (Z) induced by stimulation with the mixture of sotolone and the test substance to determine receptor activity (Z−Y) in the presence of the test substance. The rate of reduction in the receptor activity (Z−Y) in the presence of the test substance with respect to the receptor activity (X−Y) based on the stimulation with sotolone alone was calculated according to an expression shown below to determine the rate of inhibition of the receptor response by the test substance. In this assay, a plurality of independent duplicate experiments was performed. An average of the experiments in each run was obtained. Rate of inhibition (%)={1−(Z−Y)/(X−Y)}×100

[2] = tested on: the other olfactory receptors (400 types of human olfactory receptors except OR8D1); assay: Luciferase reporter gene assay of 400 types of human olfactory receptors, response to sotolone; assay type: cell-based; settings: sotolone 1 mM, HEK293 cells expressing each receptor
From the text: (§1) On the basis of sequence information registered in GenBank, each human olfactory receptor gene was cloned by PCR with Human Genomic DNA Female (G1521: Promega Corp.) as a template. Each gene thus amplified by PCR was inserted into a pENTR vector (Invitrogen Corp.) according to the manual. A NotI-AscI site present on the pENTR vector r was recombined into a NotI-AscI site prepared downstream of Flag-Rho tag sequence on a pME18S vector.
(§2) A gene (GenBank GI: 50234917) encoding a human receptor transport protein, RTP1S was inserted into the EcoRI-XhoI site of the pME18S vector.
(§3) HEK293 cells expressing each of 400 types of human olfactory receptors were prepared. […]
(§4) The olfactory receptors expressed on the HEK293 cells are conjugated with intracellular Gas to activate adenylate cyclase, thereby increasing intracellular cAMP levels. In this study, their responses to sotolone were measured using luciferase reporter gene assay which involved monitoring increase in intracellular cAMP level as luminescence intensity derived from a firefly luciferase gene (fluc2P-CRE-hygro). […]
(§5) A medium was removed from the cultures prepared in the preceding paragraph 3). […] The luciferase activity was measured using Dual-Glo™ luciferase assay system (Promega Corp.) according to the instruction manual of the product. […]

[3] = target: T1, olfactory receptor OR8D1; assay: Luciferase reporter gene assay (cAMP) of olfactory receptor response to sotolone in HEK293 cells; assay type: cell-based
From the text: as §1, §2, §3, §4, §5

[4] = target: T1, olfactory receptor OR8D1; settings: Non-Patent Document 5; cited from earlier work

| Structure (SMILES) | inhibition at 100 µM [1] | other results |
| --- | --- | --- |
| CC(C)=CCCC(C)=CC=O [Citral, citral] | ≥ 50% | – |
| CC(=O)C1(C)CC2=C(CCCC2(C)C)CC1C (stereo not drawn) [Iso E Super, 7-acetyl-1,2,3,4,5,6,7,8-octahydro-1,1,6,7-tetramethyl-naphthalene] | ≥ 50% | – |
| CC1C/C=C/CCCCCCCCCC(=O)C1 [Muscenone(R) Delta, (5E)-3-methylcyclopentadec-5-en-1-one] | ≥ 50% | – |
| C[C@@H]1CCCCCCCCCCCCC(=O)C1 [Muscone, muscone] | – | rate of inhibition of the response of OR8D1 to sotolone [1]: 40% or more rate of |
| CC(=O)c1cc2c(cc1C)C(C)(C)C(C)CC2(C)C [Tonalid(R), 1-(5,6,7,8-tetrahydro-3,5,5,6,8,8-hexamethyl-2-naphthalenyl)-ethanone] | ≥ 50% | – |
| CC(=O)C1=C(C)C2CC3(C1)C(C)CCC3C2(C)C (stereo not drawn) [acetylcedrene, 1-(2,3,4,7,8,8a-hexahydro-3,6,8,8-tetramethyl-1H-3a,7-methanoazulen-5-yl)-ethanone] | ≥ 75% | – |
| CCCCCC(C=O)=Cc1ccccc1 [amylcinnamic aldehyde, 2-benzylideneheptanal] | ≥ 50% | – |
| CC(C)(C)c1ccc(CCC=O)cc1 [bourgeonal, 3-(4-tert-butylphenyl)propanal] | ≥ 50% | – |
| CC1=C(O)C(=O)OC1C (stereo not drawn) [sotolone, 3-Hydroxy-4,5-dimethyl-2(5H)-furanone] | – | response of the other olfactory receptors to sotolone [2]: did not respond; concentration dependence of the response of OR8D1 to sotolone ([3]; sotolone 0, 3, 10, 30, 100, 300, 1000 and 3000 μM, HEK293 cells with human RTP1S): concentration-dependent response; response of olfactory receptor OR8D1 to sotolone ([3]; sotolone 1 mM, HEK293 cells expressing the receptor, 2.5 hours, fold increase of luminescence): exhibited a response; response of olfactory receptor OR8D1 induced by sotolone (reported) [4]: induces the response |
